These results are taken from patent US8685974B2 (Bayer CropScience AG, priority 2009, dated 2014).

Read-outs that look alike come from different tables or passages of the source. Marks after values point to notes of the source that are not given here.

Data set [1] in a line: physchem. The settings on record: pH 2.7.
For data set [2] the following is noted: pH 2.7.
Data set [3] relates to Pyrenophora teres. In words: In vivo test on Pyrenophora teres (barley net blotch). The settings on record: dose of 500 ppm; barley plants; grading 12 days after contamination. On the procedure:
In Vivo Test on Pyrenophora teres (Barley Net Blotch)
The active ingredients tested are prepared by homogenization in a mixture of acetone/Tween/DMSO, then diluted with water to obtain the desired active material concentration.
Barley plants (Plaisant variety), sown on a 50/50 peat soil-pozzolana substrate in starter cups and grown at 12° C., are treated at the 1-leaf stage (10 cm tall) by spraying with the active ingredient prepared as described above.
Plants, used as controls, are treated with an aqueous solution not containing the active material.
After 24 hours, the plants are contaminated by spraying them with an aqueous suspension of Pyrenophora teres spores (12,000 spores per ml). The spores are collected from a 12-day-old culture. The contaminated barley plants are incubated for 24 hours at about 20° C. and at 100% relative humidity, and then for 12 days at 80% relative humidity.
Grading is carried out 12 days after the contamination, in comparison with the control plants.

Data set [4] relates to Alternaria solani. In words: Alternaria test (tomato) / protective. As to conditions: 500 ppm active compound, protective spray, evaluated 7 days after inoculation. Format: in vivo. In a few lines:
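Young tomato plants sprayed protectively with compound formulated in DMF with alkylaryl polyglycol ether emulsifier and diluted in water to the application rate. After inoculation, plants held at 96% rel. humidity and 20° C. Efficacy scored 7 days post-inoculation: 0% equals untreated control, 100% no infection.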

Data set [5] relates to Fusarium graminearum. Format: cell-based. As to conditions: 50 μM; for % Inhibition of DON/AcDON at 50 μM: 7 days at 28° C.

`CC(C)Nc1nccc(CC(=O)c2ccc(Cl)s2)n1` displayed a log p in data set [1] of 2.37.
For the molecule `CN(C)C=CC(=O)c1cc(Br)c(Br)s1` [1-(4,5-Dibromo-2-thienyl)-3-(dimethylamino)prop-2-en-1-one], the log p in data set [1] was 2.68.
Still for that read-out and setting: then `CN(C)C=CC(=O)c1cc(Br)cs1` [1-(4-Bromo-2-thienyl)-3-(dimethylamino)prop-2-en-1-one], with 1.94; and `CN(C)C=CC(=O)c1cc(Cl)cs1` [1-(4-Chloro-2-thienyl)-3-(dimethylamino)prop-2-en-1-one], with 1.86; and `CSc1nccc(CC(=O)c2ccc(Cl)s2)n1` [1-(5-Chloro-2-thienyl)-2-[2-(methylsulfanyl)pyrimidin-4-yl]ethanone], with 2.98.
Still for that read-out and setting: under `O=C(Cc1ccnc(Cl)c1)c1ccc(Cl)s1` [1-(5-chloro-2-thienyl)-2-(2-chloropyridin-4-yl)ethanone] stands 2.94.
The same measure, in the same setting: then `O=C(Cc1ccncc1)c1ccc(Cl)s1` [1-(5-chloro-2-thienyl)-2-(pyridin-4-yl)ethanone], with 1.17; and `CN(C)C=C(C(=O)c1ccc(Cl)s1)c1ccnc(Cl)c1` [1-(5-chloro-2-thienyl)-3-(dimethylamino)-2-(2-chloropyridin-4-yl)prop-2-en-1-one], with 2.58.
Regarding `CN(C)C=C(C(=O)c1ccc(Cl)s1)c1ccncc1` [1-(5-chloro-2-thienyl)-3-(dimethylamino)-2-(pyridin-4-yl)prop-2-en-1-one], in data set [1], the log p was 1.07.
Same read-out and setting: then `CCn1ccc(-c2cccs2)n1` [1-Ethyl-3-(2-thienyl)-1H-pyrazole], with 2.14; and `CCn1ccc(-c2cc(C)cs2)n1` [1-Ethyl-3-(4-methyl-2-thienyl)-1H-pyrazole], with 2.64.
Still for that read-out and setting: then `CCn1cc(I)c(-c2cccs2)n1` [1-Ethyl-4-iodo-3-(2-thienyl)-1H-pyrazole], with 3.13.
The same measure, in the same setting: under `CCn1cc(I)c(-c2cc(C)cs2)n1` [1-Ethyl-4-iodo-3-(4-methyl-2-thienyl)-1H-pyrazole] stands 3.7.
With `CCn1nccc1-c1cccs1` [1-Ethyl-5-(2-thienyl)-1H-pyrazole], in data set [1], the log p turned out to be 2.18.
The molecule `CCn1nccc1-c1cc(C)cs1` [1-Ethyl-5-(4-methyl-2-thienyl)-1H-pyrazole] came in with a log p in data set [1] of 2.68.
The same measure, in the same setting: under `CC(C)n1ccc(-c2cccs2)n1` [1-Isopropyl-3-(2-thienyl)-1H-pyrazole] stands 2.66; under `Cc1csc(-c2ccn(C(C)C)n2)c1` [1-Isopropyl-3-(4-methyl-2-thienyl)-1H-pyrazole], 3.14; under `CC(C)n1nccc1-c1cccs1` [1-Isopropyl-5-(2-thienyl)-1H-pyrazole], 2.69.
`Cc1csc(-c2ccnn2C(C)C)c1` [1-Isopropyl-5-(4-methyl-2-thienyl)-1H-pyrazole] displayed a log p in data set [1] of 3.18.
The same measure, in the same setting: under `CCCc1cc(-c2sccc2C)nn1C` [1-Methyl-3-(3-methyl-2-thienyl)-5-propyl-1H-pyrazole] stands 3.34; under `Cc1csc(-c2ccn(C)n2)c1` [1-Methyl-3-(4-methyl-2-thienyl)-1H-pyrazole], 2.14.
The same measure, in the same setting: then `CCCc1cc(-c2cccs2)n(C)n1` [1-Methyl-3-propyl-5-(2-thienyl)-1H-pyrazole], with 2.9.
Consider `CCC(C)n1cc(-c2ccnc(NC(=O)N(C)C)c2)c(-c2ccc(Cl)s2)n1` (stereo not shown) [Example 227], for which the log p in data set [2] was 2.19^[b]. The protection in data set [3] stood at 95%. The efficacy in data set [4] is given as 80%. Moreover, in data set [5], the “% Inhibition of fungal growth at 50 μM” value is given as 100% and the “% Inhibition of DON/AcDON at 50 μM” value was determined as 99%.
On the same counts, the results for `CCC(C)C(=O)Nc1cc(-c2cn(C(C)CC)nc2-c2ccc(Cl)s2)ccn1` (stereo not shown) [Example 228] are 4.05^[b], 90%, 70%, 49% and 92%.
Taken in the same sequence, the figures for `CCC(C)n1cc(-c2ccnc(NC(=O)CC3CC3)c2)c(-c2ccc(Cl)s2)n1` (stereo not shown) [Example 229] were 3.81^[b], 90%, 95%, 82% and 98%.
Taken in the same sequence, the figures for `CCC(C)n1cc(-c2ccnc(NC(=O)CC(C)C)c2)c(-c2ccc(Cl)s2)n1` (stereo not shown) [Example 235] were 4.08^[b], 95%, 95%, 0% and 86%.
Regarding `CCC(C)n1cc(-c2ccnc(NC(=O)C3CCC3)c2)c(-c2ccc(Cl)s2)n1` (stereo not shown) [Example 240], the log p in data set [2] is 3.81^[b]. The molecule also had a protection in data set [3] of 90%. The molecule further returned an efficacy in data set [4] of 95%. Also, in data set [5], the “% Inhibition of fungal growth at 50 μM” value was determined as 37% and the “% Inhibition of DON/AcDON at 50 μM” value is 99%.
As to `CC(C)n1cc(-c2ccnc(NC(=O)CC3CC3)c2)c(-c2ccc(Cl)s2)n1` [Example 250], the log p in data set [2] is 3.37^[b]. Besides, the protection in data set [3] was determined as 100%. In data set [4], this molecule came in with an efficacy of 90%. In data set [5], the “% Inhibition of fungal growth at 50 μM” value is 29% and the “% Inhibition of DON/AcDON at 50 μM” value came to 99%.
On the same counts, the results for `CCn1cc(-c2ccnc(NC(=O)CC3CC3)c2)c(-c2ccc(Cl)s2)n1` [Example 253] are 2.94^[b], 100%, 95%, 100% and 99%.
Taken in the same sequence, the figures for `CCn1cc(-c2ccnc(NC(=O)COC)c2)c(-c2ccc(Cl)s2)n1` [Example 261] were 2.78^[b], 90%, 90%, 96% and 98%.
Turning to `CC(C)CC(=O)Nc1cc(-c2cn(C)nc2-c2ccc(Cl)s2)ccn1` [Example 270], in data set [2], the log p is 2.75^[b]. This molecule gave a protection in data set [3] of 95%. The efficacy in data set [4] is 95%. Also, in data set [5], the “% Inhibition of fungal growth at 50 μM” value is recorded as 49% and the “% Inhibition of DON/AcDON at 50 μM” value was 98%.
Take `COCC(=O)Nc1cc(-c2cn(C)nc2-c2ccc(Cl)s2)ccn1` [Example 276]: the log p in data set [2] was 2.4^[b]. In data set [3], the protection was 80%. For the same molecule, in data set [4], the efficacy is on record as 90%. Further, in data set [5], the “% Inhibition of fungal growth at 50 μM” value turned out to be 98% and the “% Inhibition of DON/AcDON at 50 μM” value came to 98%.
For the molecule `CC(=O)N(C(C)=O)c1cc(-c2cnn(/C=C/F)c2-c2ccc(Cl)s2)ccn1` [Example 291], the log p in data set [2] was 3.39^[b]. The molecule also showed a protection in data set [3] of 95%. Further, the efficacy in data set [4] came out at 90%. Moreover, in data set [5], the “% Inhibition of fungal growth at 50 μM” value is given as 18% and the “% Inhibition of DON/AcDON at 50 μM” value turned out to be 100%.
Taken in the same sequence, the figures for `CC(=O)Nc1cc(-c2cn(/C=C/F)nc2-c2ccc(Cl)s2)ccn1` [Example 293] were 2.52^[b], 90%, 80%, 32% and 100%.
Consider `CC(=O)N(C(C)=O)c1cc(-c2cn(/C=C/F)nc2-c2ccc(Cl)s2)ccn1` [Example 297], for which the log p in data set [2] was 3.09^[b]. In addition, the protection in data set [3] is recorded as 80%. Moreover, the efficacy in data set [4] turned out to be 90%. Moreover, in data set [5], the “% Inhibition of fungal growth at 50 μM” value came out at 0% and the “% Inhibition of DON/AcDON at 50 μM” value is given as 100%.
Taken in the same sequence, the figures for `CC(=O)N(C(C)=O)c1cc(-c2cn(C)nc2-c2ccc(Cl)s2)ccn1` [Example 303] were 2.52^[b], 70%, 95%, 83% and 100%.
On the same counts, the results for `N#CCCn1cc(-c2ccncc2)c(-c2ccc(F)s2)n1` [Example 340] are 1.12^[b], 70%, 94%, 91% and 98%.
Taken in the same sequence, the figures for `N#CCCn1cc(-c2ccncc2)c(-c2ccc(Br)s2)n1` [Example 350] were 1.42^[b], 90%, 80%, 92% and 99%.
Consider `FC(F)Cn1cc(-c2ccncc2)c(-c2ccc(Cl)s2)n1` [Example 363], for which the log p in data set [2] was 1.61^[b]. The molecule also had a protection in data set [3] of 90%. This molecule also came in with an efficacy in data set [4] of 100%. In data set [5], the “% Inhibition of fungal growth at 50 μM” value turned out to be 99% and the “% Inhibition of DON/AcDON at 50 μM” value worked out at 99%.
Regarding `CCOCCn1cc(-c2ccncc2)c(-c2ccc(Cl)s2)n1` [Example 364], in data set [2], the log p was 1.69^[b]. In addition, the protection in data set [3] is 70%. Also, the efficacy in data set [4] turned out to be 100%. Moreover, in data set [5], the “% Inhibition of fungal growth at 50 μM” value came out at 100% and the “% Inhibition of DON/AcDON at 50 μM” value stood at 99%.
